PMC9224473 (International Journal of Molecular Sciences, 2022)
Values after ≈ are worked out from the molar mass of the structure shown.

Experiments:
S. aureus ATCC 6538 = experiment: MIC, broth microdilution, standard strain; assay type: cell-based, Staphylococcus aureus; details: Staphylococcus aureus, ATCC6538, 19 h, 35 °C
P. aeruginosa ATCC 15442 = experiment: MIC, broth microdilution, standard strain; assay type: cell-based, Pseudomonas aeruginosa; details: Pseudomonas aeruginosa, ATCC15442, 19 h, 35 °C
S. aureus ATCC 25923 = experiment: MIC, broth microdilution, standard strain; assay type: cell-based, Staphylococcus aureus; details: Staphylococcus aureus, ATCC25923, 19 h, 35 °C
[1] = tested on: HCT116 (human colon cancer); experiment: MTT cytotoxicity assay; assay type: cell-based; details: Homo sapiens, HCT-116, 72 h, mean SD
Protocol: (§1) The human cell lines SW480 (primary colon cancer), SW620 (lymph node metastatic colon cancer from the same patient as primary cancer cells), HCT116 (colon carcinoma), HepG2 (liver cancer), and HaCaT (immortalized keratinocytes) were obtained from the American Type Culture Collection (ATCC, Rockville, MD, USA). The SW480, SW620 and HCT116 cells were grown in MEM (ThermoSci, Waltham, MA, USA), HepG2 and HaCaT in DMEM High Glucose (Biowest SAS, Nuaillé, France) supplemented with 10% foetal bovine serum (FBS), HEPES (20 mM), and antibiotics (100 U mL^−1 of Penicillin and 100 μg mL^−1 of Streptomycin). The cells were incubated in a humidified incubator at 37 °C/5% CO2, until 80–90% confluence was reached.
(§2) The cell viability was assessed by using of MTT salt [3-(4,5-dimethylthiazol-2-yl)-2,5-diphenyltetrazolium bromide] converted by mitochondrial dehydrogenase, occurring in living cells. The cells were seeded in 96-well plates at a density of 1 × 10^4 cells per well and allowed to adhere for 24 h at 37 °C in a CO2 humidified incubator. […]. The untreated cells were used as the control.
(§3) After 72 h incubation, the medium was replaced with 200 µL per well of free-serum medium containing 0.5 mg mL^−1 MTT and incubated for 4 h at 37 °C in a CO2 humidified incubator. Subsequently, the medium was removed and dimethyl sulfoxide (DMSO) with isopropanol (1:1) was added to dissolve the formazan crystals. The optical density was measured using UVM 340 reader (ASYS Hitech GmbH, Eugendorf, Austria) at a wavelength of 570 nm. The experiments were repeated three times. The cell viability was calculated as the percent of MTT reduced in treated cells versus control cells (untreated cells). The number of viable cells cultured without tested compounds was assumed as 100%. A decreased relative MTT level indicates decreased cell viability. The IC50 values were estimated using CompuSyn version 1.0.

[2] = tested on: SW480 (human primary colon cancer); experiment: MTT cytotoxicity assay; assay type: cell-based; details: Homo sapiens, SW480, 72 h, mean SD
Protocol: as §1, §2, §3

[3] = tested on: HepG2 (human liver cancer); experiment: MTT cytotoxicity assay; assay type: cell-based; details: Homo sapiens, HepG2, 72 h, mean SD
Protocol: as §1, §2, §3

[4] = tested on: HaCaT (human immortal keratinocyte cell line); experiment: MTT cytotoxicity assay; assay type: cell-based; details: Homo sapiens, HaCaT, 72 h, mean SD, read-out: IC50 HaCaT (normal cells)
Protocol: as §1, §2, §3

S. aureus ATCC 29213 = experiment: MIC, broth microdilution, standard strain; assay type: cell-based, Staphylococcus aureus; details: Staphylococcus aureus, ATCC29213, 19 h, 35 °C
[5] = tested on: S. epidermidis ATCC 35984; experiment: MIC, broth microdilution, standard strain; assay type: cell-based, Staphylococcus epidermidis; details: Staphylococcus epidermidis, ATCC35984, 19 h, 35 °C
S. aureus T 5591 = experiment: MIC, broth microdilution, clinical strain; assay type: cell-based, Staphylococcus aureus; details: Staphylococcus aureus, T5591, 19 h, 35 °C
S. aureus NCTC 4163 = experiment: MIC, broth microdilution, standard strain; assay type: cell-based, Staphylococcus aureus; details: Staphylococcus aureus, NCTC4163, 19 h, 35 °C
E. coli ATCC 25922 = experiment: MIC, broth microdilution, standard strain; assay type: cell-based, Escherichia coli; details: 35 °C; for MIC E. coli ATCC 25922: 19 h; for MIC: Escherichia coli, ATCC25922, 19 h
[6] = tested on: SW620 (human metastatic colon cancer); experiment: MTT cytotoxicity assay; assay type: cell-based; details: Homo sapiens, SW-620, 72 h, mean SD
Protocol: as §1
The cell viability was assessed by using of MTT salt [3-(4,5-dimethylthiazol-2-yl)-2,5-diphenyltetrazolium bromide] converted by mitochondrial dehydrogenase, occurring in living cells. […] The untreated cells were used as the control.
as §3, with “Subsequently,” for “After 72 h incubation, the medium was replaced with 200 µL per well of free-serum medium containing 0.5 mg mL^−1 MTT and incubated for 4 h at 37 °C in a CO2 humidified incubator. Subsequently,”

S. aureus T 5595 = experiment: MIC, broth microdilution, clinical strain; assay type: cell-based, Staphylococcus aureus; details: Staphylococcus aureus, T5595, 19 h, 35 °C
S. pasteuri KR 4358 = experiment: MIC, broth microdilution, clinical strain; assay type: cell-based, Staphylococcus pasteuri; details: Staphylococcus pasteuri, KR4358, 19 h, 35 °C
E. coli 520 = experiment: MIC, broth microdilution, clinical strain; assay type: cell-based, Escherichia coli; details: Escherichia coli, 520, 19 h, 35 °C
P. aeruginosa 659 = experiment: MIC, broth microdilution, clinical strain; assay type: cell-based, Pseudomonas aeruginosa; details: Pseudomonas aeruginosa, 659, read-out: MIC P. aeruginosa 659, 19 h, 35 °C
E. coli 510 = experiment: MIC, broth microdilution, clinical strain; assay type: cell-based, Escherichia coli; details: Escherichia coli, 510, 19 h, 35 °C
[7] = tested on: S. epidermidis ATCC 12228; experiment: MIC, broth microdilution, standard strain; assay type: cell-based, Staphylococcus epidermidis; details: Staphylococcus epidermidis, ATCC12228, 19 h, 35 °C
S. epidermidis KR 4243 = experiment: MIC, broth microdilution, clinical strain; assay type: cell-based, Staphylococcus epidermidis; details: Staphylococcus epidermidis, KR4243, 19 h, 35 °C
E. coli 600 = experiment: MIC, broth microdilution, clinical strain; assay type: cell-based, Escherichia coli; details: Escherichia coli, 600, 19 h, 35 °C

Row | Structure (SMILES) | MIC (S. aureus ATCC 6538) [µg/mL] | MIC (P. aeruginosa ATCC 15442) [µg/mL] | MIC (S. aureus ATCC 25923) [µg/mL] | IC50 [1] [µM] | IC50 [2] [µM] | IC50 [3] [µM] | IC50 [4] [µM] | MIC (S. aureus ATCC 29213) [µg/mL] | MIC [5] [µg/mL] | MIC (S. aureus T 5591) [µg/mL] | MIC (S. aureus NCTC 4163) [µg/mL] | MIC (E. coli ATCC 25922) [µg/mL] | IC50 [6] [µM] | MIC (S. aureus T 5595) [µg/mL] | MIC (S. pasteuri KR 4358) [µg/mL] | MIC (E. coli 520) [µg/mL] | MIC (P. aeruginosa 659) [µg/mL] | MIC (E. coli 510) [µg/mL] | MIC [7] [µg/mL] | MIC (S. epidermidis KR 4243) [µg/mL] | other results
1 | CC(C)[C@@H]1CC[C@@H](C)C[C@H]1OC(=O)CCCN1CCN(c2cc3c(cc2F)c(=O)c(C(=O)O)cn3C2CC2)CC1 [Compound 4, 1-cyclopropyl-6-fluoro-7-{4-[4-((1R,2S,5R)-2-isopropyl-5-methylcyclohexyloxy)-4-oxobutyl]piperazin-1-yl}-4-oxo-1,4-dihydroquinoline-3-carboxylic acid] | 4 (≈ 7.2 µM) | 64 (≈ 115 µM) | 4 (≈ 7.2 µM) | 24.2 ± 0.1 | 36.8 ± 2.6 | 35.1 ± 4.4 | 30.5 ± 2.4 | 4 (≈ 7.2 µM) | 4 (≈ 7.2 µM) | 4 (≈ 7.2 µM) | 4 (≈ 7.2 µM) | 2 to 4 (≈ 3.6 to 7.2 µM) | 54.3 ± 4.1 | 4 (≈ 7.2 µM) | 4 (≈ 7.2 µM) | 8 (≈ 14.4 µM) | 256 (≈ 461 µM) | 256 (≈ 461 µM) | 4 (≈ 7.2 µM) | 4 (≈ 7.2 µM) | MIC E. coli ATCC 25922 (E. coli ATCC 25922): 4 µg/mL (≈ 7.2 µM); MIC (E. coli 600): 4 µg/mL (≈ 7.2 µM)
2 | Cc1ccc(C(C)C)c(OC(=O)CCCCN2CCN(c3cc4c(cc3F)c(=O)c(C(=O)O)cn4C3CC3)CC2)c1 [Compound 13, 1-cyclopropyl-6-fluoro-7-{4-[5-(2-isopropyl-5-methylphenoxy)-5-oxopentyl]piperazin-1-yl}-4-oxo-1,4-dihydroquinoline-3-carboxylic acid] | 2 (≈ 3.55 µM) | 16 (≈ 28.4 µM) | 4 (≈ 7.1 µM) | 50.2 ± 3.4 | 48.1 ± 2.8 | 33.8 ± 2.1 | > 100 | 2 (≈ 3.55 µM) | 2 (≈ 3.55 µM) | 2 (≈ 3.55 µM) | 2 (≈ 3.55 µM) | 2 to 4 (≈ 3.55 to 7.1 µM) | 50.2 ± 0.8 | 2 (≈ 3.55 µM) | 2 (≈ 3.55 µM) | 4 (≈ 7.1 µM) | 128 (≈ 227 µM) | 128 (≈ 227 µM) | 2 (≈ 3.55 µM) | 2 (≈ 3.55 µM) | MIC E. coli ATCC 25922 (E. coli ATCC 25922): 4 µg/mL (≈ 7.1 µM); MIC (E. coli 600): 8 µg/mL (≈ 14.2 µM)
3 | CC(C)[C@@H]1CC[C@@H](C)C[C@H]1OC(=O)CN1CCN(c2cc3c(cc2F)c(=O)c(C(=O)O)cn3C2CC2)CC1 [Compound 2, 1-cyclopropyl-6-fluoro-7-{4-[2-((1R,2S,5R)-2-isopropyl-5-methylcyclohexyloxy)-2-oxoethyl]piperazin-1-yl}-4-oxo-1,4-dihydroquinoline-3-carboxylic acid] | 16 (≈ 30.3 µM) | 128 (≈ 243 µM) | 16 (≈ 30.3 µM) | 32.3 ± 1.5 | 36 ± 2.9 | 16.5 ± 0.4 | 25.7 ± 3 | 16 (≈ 30.3 µM) | 16 (≈ 30.3 µM) | 16 (≈ 30.3 µM) | 16 (≈ 30.3 µM) | 8 (≈ 15.2 µM) | 26.7 ± 0.2 | 16 (≈ 30.3 µM) | 16 (≈ 30.3 µM) | 16 (≈ 30.3 µM) | 128 (≈ 243 µM) | > 256 | 16 (≈ 30.3 µM) | 16 (≈ 30.3 µM) | MIC (E. coli 600): 16 µg/mL (≈ 30.3 µM)
4 | Cc1ccc(C(C)C)c(OCC(=O)N2CCN(c3cc4c(cc3F)c(=O)c(C(=O)O)cn4C3CC3)CC2)c1 [Compound 9, 1-cyclopropyl-6-fluoro-7-{4-[2-(2-isopropyl-5-methylphenoxy)acetyl]piperazin-1-yl}-4-oxo-1,4-dihydroquinoline-3-carboxylic acid] | 2 (≈ 3.83 µM) | 256 (≈ 491 µM) | 2 (≈ 3.83 µM) | 44.5 ± 4 | 28.2 ± 0.6 | 25.7 ± 0.8 | 19.9 ± 2.2 | 2 (≈ 3.83 µM) | 4 (≈ 7.67 µM) | 4 (≈ 7.67 µM) | 2 (≈ 3.83 µM) | 16 (≈ 30.7 µM) | 49.1 ± 4.1 | 4 (≈ 7.67 µM) | 8 (≈ 15.3 µM) | 32 (≈ 61.4 µM) | 256 (≈ 491 µM) | > 256 | 8 (≈ 15.3 µM) | 8 (≈ 15.3 µM) | MIC (E. coli 600): 32 µg/mL (≈ 61.4 µM)
5 | Cc1ccc(C(C)C)c(OC(=O)CCN2CCN(c3cc4c(cc3F)c(=O)c(C(=O)O)cn4C3CC3)CC2)c1 [Compound 11, 1-cyclopropyl-6-fluoro-7-{4-[3-(2-isopropyl-5-methylphenoxy)-3-oxopropyl]piperazin-1-yl}-4-oxo-1,4-dihydroquinoline-3-carboxylic acid] | 4 (≈ 7.47 µM) | 16 (≈ 29.9 µM) | 4 (≈ 7.47 µM) | 39.1 ± 5.8 | 33.7 ± 6.6 | 51.3 ± 4.1 | > 100 | 4 (≈ 7.47 µM) | 4 (≈ 7.47 µM) | 4 (≈ 7.47 µM) | 4 (≈ 7.47 µM) | 2 to 4 (≈ 3.73 to 7.47 µM) | 43.5 ± 7.5 | 8 (≈ 14.9 µM) | 8 (≈ 14.9 µM) | 8 (≈ 14.9 µM) | 16 (≈ 29.9 µM) | 256 (≈ 478 µM) | 4 (≈ 7.47 µM) | 4 (≈ 7.47 µM) | MIC E. coli ATCC 25922 (E. coli ATCC 25922): 4 µg/mL (≈ 7.47 µM); MIC (E. coli 600): 4 µg/mL (≈ 7.47 µM)
6 | CC(C)[C@@H]1CC[C@@H](C)C[C@H]1OC(=O)CCCCN1CCN(c2cc3c(cc2F)c(=O)c(C(=O)O)cn3C2CC2)CC1 [Compound 5, 1-cyclopropyl-6-fluoro-7-{4-[5-((1R,2S,5R)-2-isopropyl-5-methylcyclohexyloxy)-5-oxopentyl)piperazin-1-yl)-4-oxo-1,4-dihydroquinoline-3-carboxylic acid] | 4 (≈ 7.02 µM) | 256 (≈ 449 µM) | 8 (≈ 14 µM) | 35.3 ± 1.7 | 55.4 ± 3.8 | 49.4 ± 4.6 | 43.3 ± 4.4 | 4 (≈ 7.02 µM) | 8 (≈ 14 µM) | 2 (≈ 3.51 µM) | 4 (≈ 7.02 µM) | 16 (≈ 28.1 µM) | 26.5 ± 2.1 | 4 (≈ 7.02 µM) | 4 (≈ 7.02 µM) | 64 (≈ 112 µM) | > 256 | > 256 | 8 (≈ 14 µM) | 4 (≈ 7.02 µM) | MIC (E. coli 600): 64 µg/mL (≈ 112 µM)
7 | O=C(O)c1cn(C2CC2)c2cc(N3CCNCC3)c(F)cc2c1=O [Ciprofloxacin, reference compound] |  |  |  | > 100 | > 100 | > 100 | > 100 |  |  |  |  |  | > 100 |  |  |  |  |  |  |  | 
8 | COc1cccc2c1C(=O)c1c(O)c3c(c(O)c1C2=O)C[C@@](O)(C(=O)CO)C[C@@H]3O[C@H]1C[C@H](N)[C@H](O)[C@H](C)O1 [Doxorubicin, reference compound] |  |  |  | 0.59 ± 0.02 | 0.75 ± 0.1 | 0.38 | 0.29 ± 0.1 |  |  |  |  |  |  |  |  |  |  |  |  |  | 
